Data taken from patent US5691366A, “Nitro compounds, process for preparation thereof and use thereof” (Fujisawa Pharmaceutical Co., Ltd., priority 1991, dated 1997).
Like-named read-outs stand apart in the source and are kept apart here.

Legend:
[1] = system: human platelet aggregation; assay: Inhibition of human platelet aggregation (anti-platelet aggregation activity); format: cell-based; settings: human PRP, concentration required to inhibit aggregation by 50%, read-out: ED50 (the source's name)
Experimental: Inhibitory activity of the nitro compounds of this invention against human platelet aggregation was measured according to the method described below.
Blood was collected from human volunteers. The blood was prevented from coagulation with 1 volume of 3.8% sodium citrate to 9 volumes of blood. Platelet rich plasma (PRP) was prepared by centrifugation of the blood at 1300 rpm for 10 min. at 10° C. The PRP was diluted with platelet poor plasma obtained by further centrifugation of the blood at 3000 rpm for 10 min. The platelet counts in the PRP used for aggregation studies were about 4.0×10^5 platelets/mm^3. Aggregation studies were performed turbidimetrically using NKK HEMATRACER 1. To 225 μl of PRP 25 μl of the test compounds was added and preincubated for 2 min. After preincubation 5 μl of aggregating agents were added to the mixture. Collagen and ADP were used as aggregating agents at the concentrations of 0.5 μg/ml and 2.5 μM, respectively. Activities of the test compounds were expressed as ED50 values i.e. concentrations required to inhibit the platelet aggregation responses by 50%.

[2] = system: thoracic aorta from male Sprague-Dawley rats; assay: Vasodilating activity in vitro (relaxation of norepinephrine-contracted aortic strips); design: species or system rat (male Sprague-Dawley); settings: rat aorta helical strips contracted by 3.2×10^-8 g/ml norepinephrine, 37° C.
Experimental: The thoracic aorta from male Sprague-Dawley rats, aged 9-11 weeks, were removed and cut into helical strips after removal of excess fat and connective tissues. The strips were mounted vertically in organ baths containing 25 ml Tyrode solution and isometric tension was measured. The tissue bath solution was maintained at 37° C. and bubbled with a 95% O2 and 5% CO2 gas mixture. After the resting tension was adjusted to 0.5 g, the strips were contracted by 3.2×10^-8 g/ml of norepinephrine (NE). The test compound dissolved in ethanol, polyethylene glycol and distilled water (1:1:2) were added to the organ bath cumulatively.
Then, relaxative activity of test compound was expressed as IC50 value i.e. concentration required to inhibit the contraction response by 50%.

[3] = system: Mean Arterial Blood Pressure in Conscious Rats; assay: Effect on mean arterial blood pressure in conscious rats (oral); format: in vivo, rat (male Sprague-Dawley); settings: for Hypotensive effect Dur.: time to recover to 5% of maximal decrease; for Hypotensive effect T 1/2: time to recover to half of maximal decrease; for inhibition in vivo at 3.2 mg/kg / inhibition in vivo at 10 mg/kg / inhibition in vivo at 32 mg/kg: Rattus norvegicus, po, maximal % decrease of mean blood pressure, read-out: Hypotensive effect R max
Experimental: Male Sprague-Dawley rats, aged 9-11 weeks, were anesthetized with ether and a polyethylene cannula filled with heparin solution was inserted into the femoral artery of the rats to measure mean blood pressure. Mean blood pressure was measured with a pressure transducer and recorded on a polygraph. Two hours after operation, the drug suspended in 0.5% methyl cellulose was administered orally in a volume of 5 ml/kg. Oral hypotensive effects of each compound were expressed as the maximal decrease (R max), the half time (T 1/2) and the duration (Dur.). Briefly, R max was expressed as maximal % change compared to mean blood pressure prior to the administration of compound. T 1/2 was expressed as a time during which the hypotensive effect recovered to half of the maximal decrease. Duration was expressed as a time during which the hypotensive effect recovered to 5% of the maximal decrease.

[4] = system: Mean Arterial Blood Pressure in Anesthetized Rats; assay: Effect on mean arterial blood pressure in anesthetized rats (intravenous); format: in vivo, rat (male Sprague-Dawley); settings: for inhibition in vivo at 0.32 mg/kg / inhibition in vivo at 0.1 mg/kg / inhibition in vivo at 0.032 mg/kg: Rattus norvegicus, iv, maximal % decrease of mean blood pressure, read-out: Hypotensive effect R max; for Hypotensive effect T 1/2: i.v., time to recover to half of maximal decrease
Experimental: Male Sprague-Dawley rats, aged 9-12 weeks, were anesthetized with urethane (1.4 g/kg i.p.). A polyethylene cannula filled with heparin solution was inserted into the femoral artery of the rats to measure mean blood pressure. Mean blood pressure was measured with a pressure transducer and recorded on a polygraph. The test compound dissolved in ethanol, polyethylene glycol and distilled water (1:1:2), were administered intraveneously in a volume of 0.25 ml/kg. Intravenous hypothypotensive effects of each compound were expressed as the maximal decrease (R max) and the half time (T 1/2). Briefly, R max was expressed as maximal % change compared to mean blood pressure prior to the administration of compound. T 1/2 was expressed as a time during which the hypotensive effect recovered to half of the maximal decrease.

[5] = Homo sapiens, Platelet, Inducer: ADP 2.5 μM

## CCC(=CC(CSc1nnnn1C)=NO)C(C)[N+](=O)[O-] (single isomer, unassigned) [Example 12 B, 1-Methyl-5-(4-ethyl-2-hydroxyimino-5-nitro-3-hexen-1-yl)thiotetrazole]
[1]; Inducer: ADP 2.5 μM
  IC50: 1.7 µM
[2]
  IC50: 5 µM

## CCC(=CC(CNC(C)=O)=NO)C(C)[N+](=O)[O-] (single isomer, unassigned) [Example 5 A, 1-Acetylamino-4-ethyl-2-hydroxyimino-5-nitro-3-hexene]
[3]; 3.2 mg/kg
  Hypotensive effect Dur.: 30.8 min
  Hypotensive effect T 1/2: 16 min
  inhibition in vivo at 3.2 mg/kg: 27.2%
[3]; 10 mg/kg
  Hypotensive effect Dur.: 83.9 min
  Hypotensive effect T 1/2: 25 min
  inhibition in vivo at 10 mg/kg: 54.4%
[3]; 32 mg/kg
  Hypotensive effect Dur.: 144.2 min
  Hypotensive effect T 1/2: 75.6 min
  inhibition in vivo at 32 mg/kg: 60.6%
[1]; [5]
  IC50: 5.1 µM
[4]; 0.32 mg/kg
  inhibition in vivo at 0.32 mg/kg: 49.9%
  Hypotensive effect T 1/2: 12.8 min
[4]; 0.1 mg/kg
  Hypotensive effect T 1/2: 7.6 min
[2]; Rattus norvegicus
  IC50: 46.9 µM

## CCC(=CC(CNC(=O)c1cccnc1)=NO)C(C)[N+](=O)[O-] (stereo not shown) [Example 6 A]
[3]; 3.2 mg/kg
  Hypotensive effect Dur.: 29.3 min
  Hypotensive effect T 1/2: 20 min
  inhibition in vivo at 3.2 mg/kg: 22.3%
[3]; 10 mg/kg
  Hypotensive effect Dur.: 116.0 min
  Hypotensive effect T 1/2: 30 min
  inhibition in vivo at 10 mg/kg: 27.2%
[3]; 32 mg/kg
  Hypotensive effect Dur.: > 300 min
  Hypotensive effect T 1/2: 117 min
  inhibition in vivo at 32 mg/kg: 29.6%
[1]; [5]
  IC50: 1.8 µM
[4]; 0.1 mg/kg
  inhibition in vivo at 0.1 mg/kg: 16.9%
  Hypotensive effect T 1/2: 6.8 min
[4]; 0.32 mg/kg
  inhibition in vivo at 0.32 mg/kg: 36.3%
  Hypotensive effect T 1/2: 11.2 min
[2]
  IC50: 25.1 µM

## CCC(=CC(CSc1nnnn1C)=NO)C(C)[N+](=O)[O-] (single isomer, unassigned) [Example 12 A, 1-Methyl-5-(4-ethyl-2-hydroxyimino-5-nitro-3-hexen-1-yl)thiotetrazole]
[1]; [5]
  IC50: 1.1 µM
[4]; 0.032 mg/kg
  inhibition in vivo at 0.032 mg/kg: 16.7%
  Hypotensive effect T 1/2: 7.4 min
[4]; 0.1 mg/kg
  inhibition in vivo at 0.1 mg/kg: 37.7%
  Hypotensive effect T 1/2: 5.9 min
[2]; Rattus norvegicus
  IC50: 4.9 µM

## CCC(=CC(COC(N)=O)=NO)C(C)[N+](=O)[O-] (single isomer, unassigned) [Example 2 B, 4-Ethyl-2-hydroxyimino-5-nitro-3-hexen-1-yl carbamate]
[1]; Inducer: ADP 2.5 μM
  IC50: 2.4 µM
[1]; Inducer: Collagen 0.5 μg/ml
  IC50: 3.6 µM
[4]; 0.032 mg/kg
  inhibition in vivo at 0.032 mg/kg: 30.9%
  Hypotensive effect T 1/2: 5.3 min
[4]; 0.1 mg/kg
  inhibition in vivo at 0.1 mg/kg: 35.4%
  Hypotensive effect T 1/2: 7.3 min
[2]; Rattus norvegicus
  IC50: 11.1 µM

## CCC(=CC(COC(N)=O)=NO)C(C)[N+](=O)[O-] (single isomer, unassigned) [Example 2 A, 4-Ethyl-2-hydroxyimino-5-nitro-3-hexen-1-yl carbamate]
[1]; Homo sapiens, Platelet, Inducer: Collagen 0.5 μg/ml
  IC50: 4.6 µM
[1]; Inducer: ADP 2.5 μM
  IC50: 8.6 µM

## CCC(=CC(CSc1nc2ccccc2s1)=NO)C(C)[N+](=O)[O-] (single isomer, unassigned) [Example 14 B, 2-(4-Ethyl-2-hydroxyimino-5-nitro-3-hexen-1-yl)thio-benzothiazole]
[4]; 0.032 mg/kg
  inhibition in vivo at 0.032 mg/kg: 4.7%
[4]; 0.1 mg/kg
  inhibition in vivo at 0.1 mg/kg: 33.9%
[2]; Rattus norvegicus
  IC50: 0.11 µM
